Data: patent US20100004248A1, “Use of a Nitric Oxide Synthase Modulator for the Treatment of Cardiac Indications” (priority 2005, published 2010)

Tests used:
[1] = system: intact heart, beta-adrenergic stimulation by ISO; assay: Contractility response of intact heart to isoproterenol (ISO); assay type: in vivo, mouse
Source text: Regulation of acute beta-adrenergic stress by PDE5a inhibition (resulting in a rise in cGMP and activation of protein kinase G) requires the activity of nitric oxide synthase (NOS). […] This can be offset by chronic distal activation of the NO target protein soluble guanylate cyclase 9sGC). At the left are bars depicting the contractility response of an intact heart to ISO before and after co-administration of SIL. The ISO response is normally blunted by nearly 80%. The middle bars show data from mice with NOS inhibited by L-NAME (1 mg/L in drinking water). […] However, if one continues to treat hearts with the soluble guanylate cyclase activator (BAY 41-8543) for a week-all the while continuing NOS inhibition with L-NAME, the ability of SIL to suppress adrenergic stimulation is restored.

[2] = system: Adult myocytes isolated from wild-type C57/B16 mouse hearts; assay: Sarcomere shortening of isolated adult myocytes exposed to isoproterenol; assay type: cell-based; settings: myocytes from 3-4 weeks TAC hearts first treated with the anti-oxidant
[3] = healthy subjects, cited from earlier work
[4] = system: C57/BL6 WT mice subjected to TAC pressure overload; assay: Transthoracic echocardiography in conscious TAC mice; assay type: in vivo, mouse; settings: TAC up to 9 weeks, folate 10 mg/kg/day vs placebo
Source text: Male NOS3 null mice (NOS3^−/−) and C57/BL6 WT controls (8-11 weeks, Jackson Labs, Bar Harbor, Me., USA) were used. Pressure overload was produced by transverse aorta constriction (TAC). Briefly, The aortic arch was isolated by entering the extrapleural space between the second and third rib, and afterwards the transverse aorta was isolated between the right and left carotid arteries. A 7-0 prolene suture ligature was tied around the transverse aorta against a 27-gauge needle to produce a 65-70% constriction after the removal of the needle. After closing the chest, animals were extubated, and a subcutaneous injection of morphine sulphate 0.2 mg, was administered before they returned to their cages. Animal's ventilatory and circulatory status was checked every 30 minutes during the first 2 hours. Sham-operated mice underwent the same operation except for aortic constriction. […] Animals were randomized to receive placebo or BH4 (120 mg/kg/d) for the next 5 weeks. At the end of the study, i.e. at 9 weeks, animal were sacrificed to receive tissue or underwent in vivo PV-loop analysis. […] Control mice were subject to sham operations, and animals were studied 3-9 weeks following surgery. An additional group of wild-type animals were subjected to TAC for 3 weeks while co-treated with oral tetrahydrobiopterin (BH4) (Sigma-Aldrich) (1 mg/g food) mixed in their rodent chow, providing 5 mg/day based on 4-6 g daily diet^8.
Two different BH4 treatment protocols are used. For experiments related to FIGS. 1-7, where prevention of cardiac indications is described BH4 is provided orally as a treatment starting 2 days after TAC surgery (once mice are again eating oral diet). For those figures related to treatment of established cardiac indications, FIGS. 8-23, BH4 is provided orally but this is delayed for 4 weeks to establish substantial cardiac hypertrophy, remodeling, and NOS-uncoupling. Then the treatment is provided for the remaining 5 week period.
For folate studies, C57/BL6 WT were treated with folate (10 mg/kg/day) or with placebo for a 9 week period during which time the hearts were exposed to TAC.
In vivo cardiac morphology was assessed by transthoracic echocardiography (Acuson Sequoia C256, 13 MHz transducer, Siemens) in conscious mice. M-mode left ventricular (LV) end-systolic and end-diastolic dimensions were averaged from 3-5 beats. Left ventricular ejection fraction (LVEF) and percent fractional shortening (% FS) were calculated as: LVEF=[(LVEDD)^3-(LVESD)^3]/(LVEDD)^3×100; % FS=(LVEDD−LVESD)/LVEDD×100. Wall thickness of lateral freewall and intraventricular septum were averaged. Studies and analysis were performed blinded to heart condition.

## Nc1nc(-c2nn(Cc3ccccc3F)c3ncccc23)nc(N)c1N1CCOCC1 [BAY 41-8543]
[1]; acute administration of sGC activator, L-NAME for 1 week
  restoration of the ability of SIL to suppress ISO stimulated contractility: does not reverse this
[1]; sGC activator for a week while continuing L-NAME
  restoration of the ability of SIL to suppress adrenergic stimulation: restored

## N[C@@H](CCC(=O)N[C@@H](CS)C(=O)NCC(=O)O)C(=O)O [reduced glutathione]
[2]
  capacity of PDE5a inhibition to blunt the beta-adrenergic response after anti-oxidant pre-treatment: recovered

## CN1CC(=O)N2[C@H](c3ccc4c(c3)OCO4)c3[nH]c4ccccc4c3C[C@@H]2C1=O [Tadalafil, tadalafil]
[3]; oral 20 mg dose
  time of peak plasma concentration post-dose: two
[3]; oral
  apparent oral clearance (CL/F): 2.48 L/h
  mean elimination half-life: about 17.5 h

## Nc1nc2ncc(CNc3ccc(C(=O)N[C@@H](CCC(=O)O)C(=O)O)cc3)nc2c(=O)[nH]1 [folate, folic acid]
[4]; p<0.05
  LV mass: reduced
  cardiac dilation: diminished
[4]; p=0.05
  Ejection Fraction: significantly improved
